Results as given in article PMC8001353, “Tryptophanol-Derived Oxazolopyrrolidone Lactams as Potential Anticancer Agents against Gastric Adenocarcinoma” (Pharmaceuticals, 2021).

Legend:
Human plasma stability = format: in vitro ADME; settings: human plasma diluted 50% in PBS, 24 h incubation, 37 °C, 100 µM
Experimental: (§1) Human plasma was obtained from healthy volunteers and provided by Instituto Português do Sangue, Lisbon, Portugal. Buffer and human plasma stabilities were determined by standard methodology. Specifically, human plasma was centrifuged (5 min, 2000× g, room temperature) and, then, diluted 50% in PBS buffer (pH 7.4). The reactions were initiated by the addition of a solution of compound 7s (4 mM in DMSO, 25 µL) to 975 µL of plasma solution, at 37 °C, obtaining a final concentration of 100 µM. Solutions were stirred at 37 °C and 100 µL aliquots were collected at different time points: 0, 30, 60, 120, and 180 min (one additional aliquot was collected at 24 h). A cold reserpine solution (internal standard, 5 µM in acetonitrile, 300 µL) was then added to quench the reactions. Following centrifugation (10 min, 10,000× g, room temperature), the clear supernatants were stored at −20 °C until further analysis by HPLC-DAD. Assays were run in duplicate and procaine was used as a positive control for plasma stability. Additional control assays were conducted using PBS (pH 7.4) instead of a plasma solution. HPLC-DAD analysis was performed as previously described.

[1] = Buffer (PBS pH 7.4) stability; format: physicochemical; settings: PBS pH 7.4, 24 h incubation, 37 °C
Experimental: as §1

[2] = system: human gastric adenocarcinoma (AGS) cell line; assay: MTT reduction assay, cell viability / cytotoxicity in AGS cell line; format: cell-based; settings: for potency relative to hit 7c (times more potent / fold more active): AGS cells, ratio of IC50 values; for viability at 50 µM: Homo sapiens, AGS cell line, cell viability, MTT, 48 h incubation, mean ± SD, read-out: % CV at 50 µM
Experimental: (§2) The cytotoxicity was assessed in different cell lines with the endpoint MTT, using previously reported procedure. The following cells were obtained from the American Type Culture Collection: human embryonic kidney epithelial cell line (HEK 293T, ATCC HBT-22™), breast cancer cell line (MDA-MB-231, ATCC HTB-26™), osteosarcoma cell line (MG-63, ATCC CRL-1427™), gastric adenocarcinoma cell line (AGS, ATTC CRL-1739TM), prostate cancer cell line (DU-145, ATTC HTB-81™), and lung carcinoma cell line (A-549, ATCC CCL-185™). All cell lines were seeded at 2 × 10^4 cells/well with exception of A-549 cell line, which was seeded at 5 × 10^3 cells/well.

[3] = system: caspase 3/7 activity in AGS cells; assay: Caspase 3/7 activity assay (Ac-DEVD-AMC fluorimetric) in AGS cells; format: cell-based, human; settings: 48 h incubation at 12.5 µM, vs control, p < 0.05
Experimental: The activity of caspase 3/7 was determined by fluorimetric assay based on the hydrolysis of the peptide substrate acetyl-Asp-Glu-ValAsp-7-amido-4-methylcoumarin (Ac-DEVD-AMC) by caspase 3/7 using a previously reported procedure.

[4] = Metabolic stability in human liver microsomes with NADPH; format: in vitro ADME
Experimental: The evaluation of the metabolic stability of compound 7s was conducted in human liver microsomes (GIBCO^TM, 20 donors) by a previously reported procedure. Specifically, for a total incubation volume of 1 mL, in 100 mM phosphate buffer at pH 7.4, 7s (10 μM), human liver microsomes (0.8 mg protein/mL), NADPH (1 mM), and NADPH regeneration system (10 µL, Vivid® Regeneration System, 100×) were used. Nevirapine was used as a positive control. Additional control incubations were performed in the absence of 7s or NADPH, and using heat-denatured (90 °C, 15 min) microsomes. The resulting mixtures were incubated at 37 °C, and all assays were run in duplicate. Aliquots (50 µL) were collected at different time points (0, 5, 10, 20, 30, 40, 50, 60, 75, 90, 120, and 180 min and 24 h) and 50 µL of cold reserpine solution (2.5 µM in acetonitrile) was then added to quench the reactions. Following centrifugation (10 min, 10,000× g, 4 °C), the supernatants were stored at −20 °C until LC-MS and LC-HRMS/MS analysis.
Samples from the metabolic stability assay were analyzed by LC-MS using the experimental conditions previously described. The in vitro depletion half-life of 7s, t1/2, was calculated using Equation (1), assuming that the compound follows a first-order kinetic trend (see Supplementary Materials Figure S2). The “slope” was determined from linear fitting of the natural logarithm of the concentration of drug remaining plotted against time. (1) t1/2=ln2/slope
The intrinsic clearance was calculated using Equation (2) (2) CLint = 0.693/ t1/2 × mL incubation/mg microsomes × 45 mg microsomes/g liver × 26 g liver/Kg b.w.

A-549 (lung carcinoma) = assay: MTT cytotoxicity assay in A-549; format: cell-based; settings: Homo sapiens, A549, 48 h incubation, mean ± SD
Experimental: as §2

MG-63 (osteosarcoma) = assay: MTT cytotoxicity assay in MG-63; format: cell-based; settings: Homo sapiens, 48 h incubation, mean ± SD
Experimental: as §2

stability in PBS [1] | in vitro metabolic stability [4] | intrinsic hepatic clearance (CLint) ([4]; calculated from t1/2 (Equation 2)) | half-life at 10 µM ([4]; pH 7.4, 10 µM, 37 °C, read-out: half-life (t1/2)) | SMILES | stability in human plasma (Human plasma stability) | potency relative to hit 7c (times more potent / fold more active) [2] | viability at 50 µM [2] | caspase 3/7 activity [3] | IC50 (A-549 (lung carcinoma)) | IC50 (MG-63 (osteosarcoma))
chemical stability in PBS conditions | moderately stable | 22.8 min⁻¹ mL⁻¹ kg⁻¹ | 45 min | O=C1CC[C@]2(c3ccc(-c4ccc(Cl)c(Cl)c4)cc3)OC[C@@H](Cc3c[nH]c4ccccc34)N12 [Compound 7s, (3R,7aR)-3-((1H-indol-3-yl)methyl)-7a-(3’,4’-dichloro-[1,1’-biphenyl]-4-yl)tetrahydropyrrolo[2,1-b]oxazol-5(6H)-one] | stability in PBS conditions and under plasmatic enzyme activity | 2.3 | 8 ± 1% | significant increase | > 60 µM | 
 |  |  |  | O=C1CC[C@]2(c3ccc(-c4ccc(C(F)(F)F)cc4)cc3)OC[C@@H](Cc3c[nH]c4ccccc34)N12 [Compound 7o, (3R,7aR)-3-((1H-indol-3-yl)methyl)-7a-(4’-(trifluoromethyl)-[1,1’-biphenyl]-4-yl)tetrahydropyrrolo[2,1-b]oxazol-5(6H)-one] |  | 2.3 | 7 ± 1% | significant increase | > 60 µM | 26.8 ± 0.4 µM
